Results as given in US20130274174A1, “THERAPEUTIC COMBINATION OF DAPTOMYCIN AND PROTEIN SYNTHESIS INHIBITOR ANTIBIOTIC, AND METHODS OF USE” (priority 2011, published 2013).
In brackets after ≈: the same amount, converted by molar mass. Entries after “also recorded” stand apart in the source; their conditions may differ. Where two headings read alike, the source gives them in different places.

Columns and labels:
S. aureus MW2 (NRS123) = assay: microbe, parasite or virus in culture; format: cell-based, Staphylococcus aureus; conditions: for MIC: Staphylococcus aureus
Procedure: S. aureus strains MW2 (NARSA collection clinical MRSA isolate, NRS123) and ATCC 33591 (MRSA strain from the American Type Culture Collection) were cultured on Mueller-Hinton II cation adjusted (MHA) medium in 90×90 mm square petri dishes. MHA containing ¼ of the MIC value of TR-700, TR-705, LZD, TIA, CLI, TET, or VAN, TMP/SMX throughout the plate and a continuous linear gradient of DAP across the plate was used to passage MW2. ATCC 33591 was passaged with ¼ of the MIC of a subset of these drugs (TR-700, TMP/SMX, and VAN). A DAP-only control passage group was included for both strains. DAP gradients were created by pouring two layers of media as previously described (Bryson, V., et al. 1952. Microbial selection. Science 116:45-51; Locke, J. B., et al., 2009. Antimicrob. Agents Chemother. 53:5265-5274). Following each passage the leading edge of growth (i.e., most resistant cells) was resuspended in phosphate buffered saline (PBS) to an absorbance of 0.30 OD600 and a 100 μl aliquot containing ˜3.0×10^7 CFU (colony-forming units) was spread on to the proceeding passage plate. The starting maximal DAP concentration was 2 μg/ml and was increased in two-fold increments when the leading edge of growth surpassed the half way point on the plate. A glycerol stock was made from the total cell population for each culture condition for each passage. Thirty serial passages were completed for each treatment group.

S. aureus [1] = conditions: Locke et al. 2009; cited from earlier work
S. aureus [2] = conditions: co-selection with a subinhibitory concentration; Berti et al. 2012; cited from earlier work
[3] = tested on: S. aureus and enterococci; conditions: Entenza et al. 2010; cited from earlier work

## CC(=O)NC[C@H]1CN(c2ccc(N3CCOCC3)c(F)c2)C(=O)O1 [LZD, linezolid]
S. aureus MW2 (NRS123); NRS123, passage 0, NRS123 WT
  MIC: 2 µg/mL (≈ 5.93 µM)
S. aureus MW2 (NRS123); NRS123, passage 5, selection group DAP
  MIC: 2 µg/mL (≈ 5.93 µM)
S. aureus MW2 (NRS123); NRS123, passage 5, selection group DAP + CLI
  MIC: 2 µg/mL
S. aureus MW2 (NRS123); NRS123, passage 5, selection group DAP + LZD
  MIC: 2 µg/mL
S. aureus MW2 (NRS123); NRS123, passage 5, selection group DAP + TET
  MIC: 2 µg/mL
S. aureus MW2 (NRS123); NRS123, passage 5, selection group DAP + TIA
  MIC: 2 µg/mL
S. aureus MW2 (NRS123); NRS123, passage 5, selection group DAP + TMP/SMX
  MIC: 1 µg/mL
S. aureus MW2 (NRS123); NRS123, passage 5, selection group DAP + TR-700
  MIC: 2 µg/mL
S. aureus MW2 (NRS123); NRS123, passage 5, selection group DAP + TR-705
  MIC: 2 µg/mL
S. aureus MW2 (NRS123); NRS123, passage 5, selection group DAP + VAN
  MIC: 1 µg/mL
S. aureus MW2 (NRS123); NRS123, passage 10, selection group DAP
  MIC: 2 µg/mL (≈ 5.93 µM)
S. aureus MW2 (NRS123); NRS123, passage 10, selection group DAP + CLI
  MIC: 2 µg/mL
S. aureus MW2 (NRS123); NRS123, passage 10, selection group DAP + LZD
  MIC: 2 µg/mL
S. aureus MW2 (NRS123); NRS123, passage 10, selection group DAP + TET
  MIC: 2 µg/mL
S. aureus MW2 (NRS123); NRS123, passage 10, selection group DAP + TIA
  MIC: 2 µg/mL
S. aureus MW2 (NRS123); NRS123, passage 10, selection group DAP + TMP/SMX
  MIC: 2 µg/mL
S. aureus MW2 (NRS123); NRS123, passage 10, selection group DAP + TR-700
  MIC: 2 µg/mL
S. aureus MW2 (NRS123); NRS123, passage 10, selection group DAP + TR-705
  MIC: 2 µg/mL
S. aureus MW2 (NRS123); NRS123, passage 10, selection group DAP + VAN
  MIC: 1 µg/mL
S. aureus MW2 (NRS123); NRS123, passage 15, selection group DAP
  MIC: 1 µg/mL (≈ 2.96 µM)
S. aureus MW2 (NRS123); NRS123, passage 15, selection group DAP + CLI
  MIC: 2 µg/mL
S. aureus MW2 (NRS123); NRS123, passage 15, selection group DAP + LZD
  MIC: 2 µg/mL
S. aureus MW2 (NRS123); NRS123, passage 15, selection group DAP + TET
  MIC: 1 µg/mL
S. aureus MW2 (NRS123); NRS123, passage 15, selection group DAP + TIA
  MIC: 2 µg/mL
S. aureus MW2 (NRS123); NRS123, passage 15, selection group DAP + TMP/SMX
  MIC: 2 µg/mL
S. aureus MW2 (NRS123); NRS123, passage 15, selection group DAP + TR-700
  MIC: 2 µg/mL
S. aureus MW2 (NRS123); NRS123, passage 15, selection group DAP + TR-705
  MIC: 2 µg/mL
S. aureus MW2 (NRS123); NRS123, passage 15, selection group DAP + VAN
  MIC: 1 µg/mL
S. aureus MW2 (NRS123); NRS123, passage 20, selection group DAP
  MIC: 2 µg/mL (≈ 5.93 µM)
S. aureus MW2 (NRS123); NRS123, passage 20, selection group DAP + CLI
  MIC: 2 µg/mL
S. aureus MW2 (NRS123); NRS123, passage 20, selection group DAP + LZD
  MIC: 2 µg/mL
S. aureus MW2 (NRS123); NRS123, passage 20, selection group DAP + TET
  MIC: 1 µg/mL
S. aureus MW2 (NRS123); NRS123, passage 20, selection group DAP + TIA
  MIC: 2 µg/mL
S. aureus MW2 (NRS123); NRS123, passage 20, selection group DAP + TMP/SMX
  MIC: 2 µg/mL
S. aureus MW2 (NRS123); NRS123, passage 20, selection group DAP + TR-700
  MIC: 2 µg/mL
S. aureus MW2 (NRS123); NRS123, passage 20, selection group DAP + TR-705
  MIC: 2 µg/mL
S. aureus MW2 (NRS123); NRS123, passage 20, selection group DAP + VAN
  MIC: 1 µg/mL
S. aureus MW2 (NRS123); NRS123, passage 25, selection group DAP
  MIC: 1 µg/mL (≈ 2.96 µM)
S. aureus MW2 (NRS123); NRS123, passage 25, selection group DAP + CLI
  MIC: 2 µg/mL
S. aureus MW2 (NRS123); NRS123, passage 25, selection group DAP + LZD
  MIC: 1 µg/mL
S. aureus MW2 (NRS123); NRS123, passage 25, selection group DAP + TET
  MIC: 1 µg/mL
S. aureus MW2 (NRS123); NRS123, passage 25, selection group DAP + TIA
  MIC: 2 µg/mL
S. aureus MW2 (NRS123); NRS123, passage 25, selection group DAP + TMP/SMX
  MIC: 2 µg/mL
S. aureus MW2 (NRS123); NRS123, passage 25, selection group DAP + TR-700
  MIC: 2 µg/mL
S. aureus MW2 (NRS123); NRS123, passage 25, selection group DAP + TR-705
  MIC: 2 µg/mL
S. aureus MW2 (NRS123); NRS123, passage 25, selection group DAP + VAN
  MIC: 1 µg/mL
S. aureus MW2 (NRS123); NRS123, passage 30, selection group DAP
  MIC: 1 µg/mL (≈ 2.96 µM)
S. aureus MW2 (NRS123); NRS123, passage 30, selection group DAP + CLI
  MIC: 2 µg/mL
S. aureus MW2 (NRS123); NRS123, passage 30, selection group DAP + LZD
  MIC: 2 µg/mL
S. aureus MW2 (NRS123); NRS123, passage 30, selection group DAP + TET
  MIC: 1 µg/mL
S. aureus MW2 (NRS123); NRS123, passage 30, selection group DAP + TIA
  MIC: 2 µg/mL
S. aureus MW2 (NRS123); NRS123, passage 30, selection group DAP + TMP/SMX
  MIC: 2 µg/mL
S. aureus MW2 (NRS123); NRS123, passage 30, selection group DAP + TR-700
  MIC: 2 µg/mL
S. aureus MW2 (NRS123); NRS123, passage 30, selection group DAP + TR-705
  MIC: 2 µg/mL
S. aureus MW2 (NRS123); NRS123, passage 30, selection group DAP + VAN
  MIC: 2 µg/mL
S. aureus MW2 (NRS123); NRS123, read-out: DAP MIC by the end of the experiment (selection of DAP^ns strains), MW2, passaged with DAP alone or with co-selecting agent at ¼ MIC, CLSI breakpoint
  MIC: > 1 µg/mL
S. aureus MW2 (NRS123); co-selection at ¼ MIC, VAN: both backgrounds
  effect on preventing the emergence of DAP^ns: did not prevent the emergence of DAP non-susceptibility; also recorded: no effect on preventing DAP^ns
S. aureus MW2 (NRS123); over the course of 30 passages
  susceptibility to the co-selecting agent in its co-selection group: no increases in LZD MIC values over WT were observed
S. aureus [1]
  S. aureus mutation frequency higher than for TR-700: > 10 fold
S. aureus [2]
  effect on preventing the emergence of DAP^ns S. aureus: did not have any effect on preventing the emergence of DAP^ns S. aureus

## CC1(C)S[C@@H]2[C@H](NC(=O)[C@H](N)c3ccccc3)C(=O)N2[C@H]1C(=O)O [ampicillin]
[3]
  prevention of the emergence of daptomycin resistance: prevented or greatly delayed selection of daptomycin-nonsusceptible mutants
